# Laboratory results as given in patent US9487513B2, “Substituted pyrazolo[1,5-A]pyridines, their preparation and use as medicaments” (LABORATORIOS DEL DR. ESTEVE S.A., priority 2012, dated 2016).
# Structures can show the parent of a compound that is named as a salt.
# Biological target: T1, σ1-receptor (Cavia porcellus, UniProt Q60492)
# T1 construct: Guinea pig brains were homogenized in 10 vols; (w/v) of Tris-HCl 50 mM 0.32 M sucrose; from tissue; host or cells: guinea pig brain membranes
# Assay: σ1-receptor binding assay, [3H]-(+)-pentazocine, guinea pig brain membranes
# Details: radioligand [3H]-(+)-pentazocine at 5.0 nM; guinea pig brain membrane; 150 min at 37° C.; nonspecific binding with 1 μM haloperidol
# Experimental: Brain membrane preparation and binding assays for the σ1-receptor were performed as described (DeHaven-Hudkins, D. L., L. C. Fleissner, and F. Y. Ford-Rice, 1992, Characterization of the binding of [^3H](+)pentazocine to σ recognition sites in guinea pig brain, Eur. J. Pharmacol. 227, 371-378) with some modifications. Guinea pig brains were homogenized in 10 vols. (w/v) of Tris-HCl 50 mM 0.32 M sucrose, pH 7.4, with a Kinematica Polytron PT 3000 at 15000 r.p.m. for 30 s. The homogenate was centrifuged at 1000 g for 10 min at 4° C. and the supernatants collected and centrifuged again at 48000 g for 15 min at 4° C. The pellet was resuspended in 10 volumes of Tris-HCl buffer (50 mM, pH 7.4), incubated at 37° C. for 30 min, and centrifuged at 48000 g for 20 min at 4° C. Following this, the pellet was re-suspended in fresh Tris-HCl buffer (50 mM, pH 7.4) and stored on ice until use.
# The radioligand used was [^3H]-(+)-pentazocine at 5.0 nM and the final volume was 200 μl. The incubation was initiated with the addition of 100 μl of membrane at a final tissue concentration of approximately 5 mg tissue net weight/mL and the incubation time was 150 m. at 37° C. After incubation, the membranes were collected onto pretreated glass fiber filterplate (MultiScreen-FC, Millipore), with polyethylenimine 0.1%. The filters were washed two times with 200 μl of washing buffer (50 mM Tris Cl, pH=7.4) and then 25 μl of Ecoscint H liquid scintillation cocktail were added. Microplates were allowed to set for several hours and then quantified by liquid scintillation spectrophotometry (1450 Microbeta, Wallac). Nonspecific binding was determined with 1 μM haloperidol.
# T1 sequence (Q60492 whole entry): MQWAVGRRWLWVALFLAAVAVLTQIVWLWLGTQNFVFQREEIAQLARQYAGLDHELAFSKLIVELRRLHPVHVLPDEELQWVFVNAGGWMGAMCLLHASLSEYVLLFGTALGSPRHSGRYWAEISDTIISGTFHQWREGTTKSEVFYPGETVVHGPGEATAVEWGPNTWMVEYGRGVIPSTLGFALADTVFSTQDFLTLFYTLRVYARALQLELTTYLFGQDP
row,Compound,Ki
1,"c1c(OCCN2CC[C@H]3CCCC[C@@H]3C2)nn2c1CCCC2 [Example 87, (4aR,8aS)-2-(2-(4,5,6,7-tetrahydropyrazolo[1,5-a]pyridin-2-yloxy)ethyl)decahydroisoquinoline maleate]",3.3 nM
2,"c1c(OCCCCN2CCCCC2)nn2c1CCCC2 [Example 61, 2-(4-(piperidin-1-yl)butoxy)-4,5,6,7-tetrahydropyrazolo[1,5-a]pyridine maleate]",28.5 nM
3,"c1c(OCCCCN2CCN(C3CCCCC3)CC2)nn2c1CCCC2 [Example 69, 2-(4-(4-cyclohexylpiperazin-1-yl)butoxy)-4,5,6,7-tetrahydropyrazolo[1,5-a]pyridine maleate]",41.6 nM
4,"c1ccn2nc(OCCCCN3CCC4CCCCC4C3)cc2c1 (stereo not drawn) [Example 34, 2-(4-(pyrazolo[1,5-a]pyridin-2-yloxy)butyl)decahydroisoquinoline fumarate]",5.7 nM
5,"c1ccc2c(c1)COC21CCN(CCCCOc2cc3ccccn3n2)CC1 [Example 27, 1′-(4-(pyrazolo[1,5-a]pyridin-2-yloxy)butyl)-3H-spiro[isobenzofuran-1,4′-piperidine] oxalate]",9.1 nM
6,"c1ccc2c(c1)COC21CCN(CCCCOc2cc3n(n2)CCCC3)CC1 [Example 70, 1′-(4-(4,5,6,7-tetrahydropyrazolo[1,5-a]pyridin-2-yloxy)butyl)-3H-spiro[isobenzofuran-1,4′-piperidine]maleate]",21.6 nM
7,"c1c(OCCCCN2CCCCCC2)nn2c1CCCC2 [Example 78, 2-(4-(azepan-1-yl)butoxy)-4,5,6,7-tetrahydropyrazolo[1,5-a]pyridine maleate]",26.1 nM
8,"c1ccc2c(c1)COC21CCN(CCOc2cc3n(n2)CCCC3)CC1 [Example 74, 1′-(2-(4,5,6,7-tetrahydropyrazolo[1,5-a]pyridin-2-yloxy)ethyl)-3H-spiro[isobenzofuran-1,4′-piperidine]maleate]",30.6 nM
9,"CCCN(CCCCOc1cc2ccccn2n1)CC1CC1 [Example 35, N-(cyclopropylmethyl)-N-propyl-4-(pyrazolo[1,5-a]pyridin-2-yloxy)butan-1-amine maleate]",10.6 nM
10,"c1c(OCCCN2CCCCC2)nn2c1CCCC2 [Example 99, 2-(3-(piperidin-1-yl)propoxy)-4,5,6,7-tetrahydropyrazolo[1,5-a]pyridine maleate]",97.2 nM
11,"c1ccc2c(c1)CCN(CCCCOCc1cc3ccccn3n1)C2 [Example 4, maleate]",48 nM
12,"CN(CCCCOc1cc2n(n1)CCCC2)C1CCN(Cc2ccccc2)CC1 [Example 67, 1-benzyl-N-methyl-N-(4-(4,5,6,7-tetrahydropyrazolo[1,5-a]pyridin-2-yloxy)butyl)piperidin-4-amine dimaleate]",65.7 nM
13,"CN(CCOc1cc2ccccn2n1)CCc1ccccc1 [Example 40, N-methyl-N-phenethyl-2-(pyrazolo[1,5-a]pyridin-2-yloxy)ethanamine maleate]",41.1 nM
14,"Clc1c(OCCCCN2CCN(C3CCCCC3)CC2)nn2c1CCCC2 [Example 108, 3-chloro-2-(4-(4-cyclohexylpiperazin-1-yl)butoxy)-4,5,6,7-tetrahydropyrazolo[1,5-a]pyridine]",11.4 nM
15,"c1c(OCCN2CCN(C3CCCCC3)CC2)nn2c1CCCC2 [Example 71, 2-(2-(4-cyclohexylpiperazin-1-yl)ethoxy)-4,5,6,7-tetrahydropyrazolo[1,5-a]pyridine maleate]",39.3 nM
16,"c1ccn2nc(OCCN3CCN(C4CCCCC4)CC3)cc2c1 [Example 47, 2-(2-(4-cyclohexylpiperazin-1-yl)ethoxy)pyrazolo[1,5-a]pyridine dimaleate]",14.1 nM
17,"c1c(OCCCCNC2CCCCC2)nn2c1CCCC2 [Example 85, N-(4-(4,5,6,7-tetrahydropyrazolo[1,5-a]pyridin-2-yloxy)butyl)cyclohexanamine maleate]",42.5 nM
18,"c1c(OCCCCN2CCOCC2)nn2c1CCCC2 [Example 56, 4-(4-(4,5,6,7-tetrahydropyrazolo[1,5-a]pyridin-2-yloxy)butyl)morpholine oxalate]",181 nM
19,"CN(CCCCOc1cc2ccccn2n1)Cc1ccncc1 [Example 32, N-methyl-4-(pyrazolo[1,5-a]pyridin-2-yloxy)-N-(pyridin-4-ylmethyl)butan-1-amine dihydrochloride]",14.5 nM
20,"c1ccn2nc(OCCCCNC34CC5CC(CC(C5)C3)C4)cc2c1 [Example 37, N-adamantyl-4-(pyrazolo[1,5-a]pyridin-2-yloxy)-butan-1-amine maleate]",14.2 nM

row,Compound,Ki
1,"CN(CCCCOc1cc2ccccn2n1)C1CCN(Cc2ccccc2)CC1 [Example 12, 1-benzyl-N-methyl-N-(4-(pyrazolo[1,5-a]pyridin-2-yloxy)butyl)piperidin-4-amine difumarate]",19.5 nM
2,"c1ccn2nc(COCCCCN3CCCCCC3)cc2c1 [Example 8, 2-((4-(azepan-1-yl)butoxy)methyl)pyrazolo[1,5-a]pyridine maleate]",22.2 nM
3,"CC(C)(C)C1CCN(CCCCOc2cc3n(n2)CCCC3)CC1 [Example 65, 2-(4-(4-tert-butylpiperidin-1-yl)butoxy)-4,5,6,7-tetrahydropyrazolo[1,5-a]pyridine maleate]",8.3 nM
4,"CN(CCCCOc1cc2ccccn2n1)Cc1ccccc1 [Example 22, N-benzyl-N-methyl-4-(pyrazolo[1,5-a]pyridin-2-yloxy)butan-1-amine oxalate]",3.6 nM
5,"c1c(OCCCCNC23CC4CC(CC(C4)C2)C3)nn2c1CCCC2 [Example 83, N-adamantyl-4-(4,5,6,7-tetrahydropyrazolo[1,5-a]pyridin-2-yloxy)butan-1-amine maleate]",34.8 nM
6,"c1ccn2nc(OCCCCN3CCCC3)cc2c1 [Example 20, 2-(4-(pyrrolidin-1-yl)butoxy)pyrazolo[1,5-a]pyridine oxalate]",50.7 nM
7,"CC(C)(C)C1CCN(CCCCOc2cc3ccccn3n2)CC1 [Example 30, 2-(4-(4-tert-butylpiperidin-1-yl)butoxy)pyrazolo[1,5-a]pyridine hydrochloride]",6.2 nM
8,"CC(C)(C)C1CCN(CCOc2cc3n(n2)CCCC3)CC1 [Example 66, 2-(2-(4-tert-butylpiperidin-1-yl)ethoxy)-4,5,6,7-tetrahydropyrazolo[1,5-a]pyridine maleate]",5.5 nM
9,"c1ccc2c(c1)COC21CCN(CCOc2cc3ccccn3n2)CC1 [Example 48, 1′-(2-(pyrazolo[1,5-a]pyridin-2-yloxy)ethyl)-3H-spiro[isobenzofuran-1,4′-piperidine] dimaleate]",15.8 nM
10,"CN(CCOc1cc2ccccn2n1)C1CCN(Cc2ccccc2)CC1 [Example 41, 1-benzyl-N-methyl-N-(2-(pyrazolo[1,5-a]pyridin-2-yloxy)ethyl)piperidin-4-amine dimaleate]",14.7 nM
11,"c1ccc(C2CCN(CCCCOc3cc4ccccn4n3)CC2)cc1 [Example 21, 2-(4-(4-phenylpiperidin-1-yl)butoxy)pyrazolo[1,5-a]pyridine oxalate]",3.8 nM
12,"c1c(OCCNC23CC4CC(CC(C4)C2)C3)nn2c1CCCC2 [Example 75, N-adamantyl-2-(4,5,6,7-tetrahydropyrazolo[1,5-a]pyridin-2-yloxy)ethanamine maleate]",31.7 nM
13,"c1ccn2nc(OCCCCN3CC[C@H]4CCCC[C@@H]4C3)cc2c1 [Example 51, (4aR,8aS)-2-(4-(pyrazolo[1,5-a]pyridin-2-yloxy)butyl)decahydroisoquinoline maleate]",8.3 nM
14,"c1ccn2nc(COCCCCNC34CC5CC(CC(C5)C3)C4)cc2c1 [Example 5, N-adamantyl-4-(pyrazolo[1,5-a]pyridin-2-ylmethylpyrazolo[1,5-a]pyridin-2-ylmethoxy)butan-1-amine maleate]",42.3 nM
15,"CN1CCN(CCCCOc2cc3n(n2)CCCC3)CC1 [Example 93, 2-(4-(4-methylpiperazin-1-yl)butoxy)-4,5,6,7-tetrahydropyrazolo[1,5-a]pyridine maleate]",167 nM
16,"c1ccn2nc(COCCCCN3CCN(C4CCCCC4)CC3)cc2c1 [Example 10, 2-((4-(4-cyclohexylpiperazin-1-yl)butoxy)methyl)pyrazolo[1,5-a]pyridine maleate]",75.4 nM
17,"c1ccn2nc(OCCCCN3CCCCCC3)cc2c1 [Example 49, 2-(4-(azepan-1-yl)butoxy)pyrazolo[1,5-a]pyridine maleate]",7 nM
18,"c1ccc(OC2CCN(CCCCOc3cc4ccccn4n3)CC2)cc1 [Example 23, 2,(4-(4-phenoxypiperidin-1-yl)butoxy)pyrazolo[1,5-a]pyridine oxalate]",30.1 nM
19,"CC(C)(C)C1CCN(CCCCOCc2cc3ccccn3n2)CC1 [Example 1, 2-((4-(4-tert-butylpiperidin-1-yl)butoxy)methyl)pyrazolo[1,5-a]pyridine maleate]",16.3 nM
